Measured values reported in patent US20250163050A1, “CRYSTALLINE (+)-TETRABENAZINE” (Foresee Pharmaceuticals Co., Ltd., priority 2022, published 2025).
Converted amounts (≈) assume the structure as drawn. Read-outs that look alike come from different tables or passages of the source. Each block holds one compound with its values, some of them ahead of it.

Experiments:
[1] = Metabolism in rat liver microsome (RLM); format: in vitro ADME
Experimental: Rat liver microsome (RLM) study was conducted to investigate the generation of pharmaceutically active metabolites of Form 2 (+)-TBZ and TBZ racemate.

[2] = Solubility in PBS with 0.2% (w/v) tween 20 at 37° C.; format: physicochemical; details: for solubility: PBS with 0.2% (w/v) tween 20, 37° C., overnight
Experimental: 20 mg Form 2 crystalline (+)-TBZ was dispersed into 1 ml PBS with 0.2% (w/v) tween 20. Then, this excessively saturated suspension was stirred overnight at 37° C. 0.8 ml of former suspension was transferred into 1.5 mL Eppendorf centrifuge tube. The undissolved solid was spun down using bench-top centrifuge at the rotation of 14000 rpm for 5 min.
• Flow rate: 0.3 mL/min • Column temp: 55° C. • Injection volume: 2 uL • Detection: 220 nm • Run time: 10 min • (+)-TBZ retention time: ˜3.5 min

[3] = Powder flow property, angle of repose (USP 1174); format: physicochemical
Description: The present application enables the production of crystalline (+)-TBZ in various particle size ranges and crystal morphology (e.g. rod-shaped crystals and more symmetric crystals). As API powder/crystalline flowability can be critical in the manufacture of a drug product, flow property of crystalline (+)-TBZ in the present application was investigated.

[4] = in vivo; cited from earlier work
[5] = patients, dose escalation; cited from earlier work
dopamine receptors = details: cited from earlier work
[6] = compared with TBZ; cited from earlier work

SMILES: COc1cc2c(cc1OC)[C@H]1CC(=O)[C@H](CC(C)C)CN1CC2 [Form 2 crystalline (+)-TBZ, (3R,11bR)-tetrabenazine]
(+)-DHTBZ concentration in RLM ([1]; 0 min): 0 ng/mL | (+)-TBZ concentration in RLM ([1]; 0 min): 2056 ng/mL | (−)-DHTBZ concentration in RLM ([1]; 0 min): 0 ng/mL | (−)-TBZ concentration in RLM ([1]; 0 min): 0 ng/mL | (+)-DHTBZ concentration in RLM ([1]; 15 min): 455 ng/mL | (+)-TBZ concentration in RLM ([1]; 15 min): 881 ng/mL | (−)-DHTBZ concentration in RLM ([1]; 15 min): 0 ng/mL | (−)-TBZ concentration in RLM ([1]; 15 min): 0 ng/mL | (+)-DHTBZ concentration in RLM ([1]; 30 min): 608 ng/mL | (+)-TBZ concentration in RLM ([1]; 30 min): 366 ng/mL | (−)-DHTBZ concentration in RLM ([1]; 30 min): 0 ng/mL | (−)-TBZ concentration in RLM ([1]; 30 min): 0 ng/mL | (+)-DHTBZ concentration in RLM ([1]; 45 min): 616 ng/mL | (+)-TBZ concentration in RLM ([1]; 45 min): 122 ng/mL | (−)-DHTBZ concentration in RLM ([1]; 45 min): 0 ng/mL | (−)-TBZ concentration in RLM ([1]; 45 min): 0 ng/mL | (+)-DHTBZ concentration in RLM ([1]; 60 min): 627 ng/mL | (+)-TBZ concentration in RLM ([1]; 60 min): 42 ng/mL | (−)-DHTBZ concentration in RLM ([1]; 60 min): 0 ng/mL | (−)-TBZ concentration in RLM ([1]; 60 min): 0 ng/mL | amounts of therapeutically active VMAT2 inhibitors, (+)-TBZ and (+)-DHTBZ, generated in RLM versus racemate TBZ ([1]; rat liver microsome): comparable amounts | half-life ([1]; rat liver microsome): 10.6 min | solubility [2]: 61.032 µg/mL (≈ 192 µM) | Response Angle ([3]; D50 15 μm): 45.3 ± 5.0 ° | Response Angle ([3]; D50 35 μm): 43.3 ± 2.5 ° | Response Angle ([3]; D50 50 μm): 36.7 ± 7.6 ° | Response Angle ([3]; D50 80 μm, more symmetric crystals): 34.7 ± 1.2 ° | Response Angle ([3]; D50 80 μm, more symmetric crystals, listed as more symmetric crystalline (+)-TBZ): about 35 ° | Response Angle ([3]; D50 125 μm): 35.3 ± 2.3 ° | Response Angle ([3]; Rod shape (80 μm)): 64.3 ± 1.2 ° | Response Angle ([3]; Rod shape (80 μm), listed as rod-shaped crystalline (+)-TBZ): about 64 °

half-life ([1]; liver microsomes, rat liver microsome, read-out: Half-life): 10.6 min | less solubility compared to Form 2 crystalline (+)-TBZ ([2]; PBS with 0.2% w/v Tween 20): about 40% | solubility ([2]; aqueous with cosolvent or surfactant or cyclodextrin, thermodynamic from solid, read-out: Solubility): 36.4 µg/mL (≈ 115 µM)
SMILES: COc1cc2c(cc1OC)C1CC(=O)C(CC(C)C)CN1CC2 (racemic) [TBZ racemate, 1,3,4,6,7,11b-hexahydro-9,10-dimethoxy-3-(2-methylpropyl)-2H-benzo[a]quinolizin-2-one]
bioavailability [4]: low and variable | side-effect: akathisia [5]: 9.5% | side-effect: depression [5]: 15.0% | side-effect: drowsiness [5]: 36.5% | side-effect: insomnia [5]: 11.0% | side-effect: nervousness or anxiety [5]: 10.3% | side-effect: parkinsonism [5]: 28.5%

SMILES: COc1cc2c(cc1OC)[C@H]1C[C@@H](O)[C@H](CC(C)C)CN1CC2 [(2R,3R,11bR)-DHTBZ]
binding at dopamine receptors (dopamine receptors): negligible binding | sedative effects [6]: lack the unwanted sedative effects

SMILES: COc1cc2c(cc1OC)[C@H]1C[C@H](O)[C@H](CC(C)C)CN1CC2 [(2S,3R,11bR)-DHTBZ]
binding at dopamine receptors (dopamine receptors): negligible binding | sedative effects [6]: lack the unwanted sedative effects
